# Assay results reported in patent US10556879B2, “Retinoid compound, preparation method therefor, intermediates thereof and application thereof” (SHANGHAI INSTITUTE OF ORGANIC CHEMISTRY, CHINESE ACADEMY OF …, priority 2016, dated 2020).
# Where “and” joins values, the source holds several entries; their conditions need not be identical. Identical values can stand only once. Entries after “also recorded” stand apart in the source; their conditions may differ. Like-named read-outs stand apart in the source and are kept apart here.
# Key:
# [1] = tested on: subcutaneous implantation tumor of B16-F1 melanoma; test: Subcutaneous implantation model of B16-F1 melanoma in immunocompetent mice; type: in vivo, mice (C57BL/6)
# Method: A subcutaneous implantation model of B16-F1 melanoma in immunocompetent mice (C57BL/6, female, 6-8 weeks) was established to study the inhibitory activity of compound WYC-103 on the tumor in situ. Firstly, B16-F1 cells were incubated within 3D fibrin gel (90-Pa in gel stiffness) that was immersed in culture medium for 5 days, and the desired tumor-repopulating cells were screened. Subsequently, the culture medium was respectively treated with collagenase and neutral protease II, and the tumor-repopulating cells of B16-F1 melanoma were released, then the obtained repopulating cells were transferred to a freshly prepared medium to be re-suspended and maintained at single-cell state.
# Six immunocompetent mice were randomly divided into two groups which were respectively the treatment group and the DMSO negative control group. Mice were subcutaneously injected with 30,000 tumor-repopulating cells of melanoma to establish a subcutaneous implantation model of melanoma. Subsequently, Mice were administered via tail vein injection based on the body weight and the blood volume of the mice. From day 0, mice in the treatment group were administrated with WYC-103 once every 2 days at a blood concentration of 10 μM and fed normally, observing the survival of the mice. […] According to the statistical analysis, the tumor volume in the treatment group was only 50% of the control group (FIG. 12).
# This experiment was repeated in order to further confirm the inhibitory activity of WYC-103 on subcutaneous implantation tumor of B16-F1 melanoma. In the present experiment, 18 immunocompetent mice (C57BL/6, female, 6-8 weeks) were randomly divided into three groups which were respectively the treatment group, the positive control group (BMS-453 was used as the positive drug) and the DMSO negative control group. Subsequently, Mice were administered via tail vein injection based on the body weight and the blood volume of the mice. From day 0, mice in the treatment group were administrated with WYC-103 once every 2 days at a blood concentration of 10 μM; mice in the positive control group were administered with BMS-453 (WYC-114) as the positive drug in the same route of administration; mice in the negative control group was administered with 0.1% DMSO in a same route of administration.
# [2] = tested on: tumor-repopulating cells of B16-F1 melanoma; test: Inhibitory activity on proliferation of tumor-repopulating cells (TRCs) of B16-F1 melanoma in 3D fibrin gel; type: cell-based; conditions: for IC50: colony tumor volume, read-out: IC50 of inhibition on TRCs of B16-F1 melanoma/μM
# Method: B16-F1 Melanoma cells were incubated with 3D fibrin gel medium (90-Pa) for 5 days, and the desired tumor-repopulating cells of melanoma were screened (Nat. Mater. 2012, 11, 734). Subsequently, the culture medium was respectively treated with collagenase and neutral protease II, and the tumor-repopulating cells of B16-F1 melanoma were released, then the obtained repopulating cells were transferred to a freshly prepared medium to be resuspended and maintained at single-cell state. The tumor-repopulating cells of B16-F1 melanoma were inoculated in 3D fibrin gel medium (90-Pa) for 5 days, with 0.1% DMSO as the negative control group, Tazarotene and Bexarotene as the positive control drugs respectively, […] for 5 days. The colony tumor size was measured and calculated, and the inhibition rate of each drug on the tumor-repopulating cells of B16-F1 melanoma was calculated. The results of inhibitory activity of the compound of the present invention on the proliferation of tumor-repopulating cells of B16-F1 melanoma were shown in Table 2 below.
# [3] = tested on: metastatic melanoma in the lung; test: Metastatic melanoma in the lung model, 3000 tumor-repopulating cells via tail vein (WYC-103); type: in vivo; conditions: blood concentration 10 μM
# Description: A metastatic melanoma model in the mouse was established to study whether WYC-103 could inhibit metastatic melanoma in the lung thus prevent secondary tumorigenesis. Firstly, 12 normally immunocompetent mice (C57BL/6, female, 6-8 weeks) were randomly selected and injected via the tail vein with 3000 tumor-repopulating cells of melanoma to establish a metastatic melanoma model in the mouse. The model mice were randomly divided into two groups which were respectively the treatment group and the negative control group. The mice were administered with WYC-103 (the treatment group) and DMSO (the negative control group) via tail vein injection once every 2 days at a blood concentration of 10 μM based on the body weight and the blood volume of the mice.
# [4] = tested on: tumor-repopulating cells of A2780 ovarian cancer; test: Inhibition of proliferation of tumor-repopulating cells, colony tumor volume in 3D fibrin gel; type: cell-based, human; conditions: A2780 TRCs; for volume of colony tumor relative to None group: 10 μM
# Method: (§1) Therefore, we further studied the inhibitory activity of this compound against tumor-repopulating cells of six other kinds of human tumor, including A549 lung cancer cell, MCF-7 breast cancer cell, MDA-MB-435S melanoma cell, A2780 ovarian cancer cell, Hs-746T gastric cancer cell, MDA-MB-231 breast cancer cell.
# (§2) The above cancer cells were incubated with 3D fibrin gel medium (90-Pa) for 5 days, and the desired tumor-repopulating cells were screened. Subsequently, the culture medium was respectively treated with collagenase and neutral protease II, and the tumor-repopulating cells of B16-F1 melanoma were released, then the obtained repopulating cells were transferred to a freshly prepared medium to be resuspended and maintained at single-cell state. The tumor-repopulating cells of individual tumor were inoculated in 3D fibrin gel medium (90-Pa) for 5 days, with 0.1% DMSO as the negative control group (represented by DMSO group in FIGS. 3-8), the drug-free group as vehicle control group (represented by None group in FIGS. 3-8), and the study was performed by beginning administrating on the day 0 and the 3rd day respectively, and the colony tumor volume was measured and calculated.
# as §2, with “The above human tumor cells were” for “The above cancer cells were”, “cells of B16-F1 melanoma were inoculated” for “cells of individual tumor were inoculated”, “group in FIG. 9), the drug-free” for “group in FIGS. 3-8), the drug-free”, “measured and calculated, beginning administrating from the 3rd day at a concentration of 0.1 μM, 1.0 μM, and 10 μM respectively, the colony tumor volume was measured and calculated.” for “measured and calculated.”
# [5] = tested on: tumor-repopulating cells of MDA-MB-231 breast cancer; test: as above; type: cell-based, human; conditions: MDA-MB-231 TRCs; for volume of colony tumor relative to None group: 10 μM
# Method: as §1, §2
# as §2, with “The above human tumor cells were” for “The above cancer cells were”, “cells of B16-F1 melanoma were inoculated” for “cells of individual tumor were inoculated”, “group in FIG. 9), the drug-free” for “group in FIGS. 3-8), the drug-free”, “measured and calculated, beginning administrating from the 3rd day at a concentration of 0.1 μM, 1.0 μM, and 10 μM respectively, the colony tumor volume was measured and calculated.” for “measured and calculated.”
# [6] = tested on: B16-F1 metastatic melanoma in the lung; test: B16-F1 metastatic melanoma in the lung model, 30,000 tumor-repopulating cells via tail vein (WYC-209); type: in vivo, mice (C57BL/6); conditions: for mice that suffered pulmonary metastatic melanoma: 30th day, 8 mice
# Method: This experiment was performed to study whether WYC-209 could inhibit the metastasis of melanoma to the lung thus prevent secondary tumorigenesis. The B16-F1 cells were incubated with 3D fibrin gel medium (90-Pa) for 5 days, and the desired tumor-repopulating cells were screened. Subsequently, the culture medium was respectively treated with collagenase and neutral protease II, and the tumor-repopulating cells were released, then the obtained repopulating cells were transferred to a freshly prepared medium to be re-suspended and maintained at single-cell state. Then 24 immunocompetent mice (C57BL/6, female, 6-8 weeks) were randomly selected and divided into three groups which were respectively low-dose group (1.0 μM), high-dose group (10 μM) and DMSO negative control group, with 8 mice per group. Subsequently, the mice were injected via the tail vein with 30,000 tumor-repopulating cells of melanoma to establish a B16-F1 metastatic melanoma model in the mouse. Subsequently, Mice were administered via tail vein injection based on the body weight and the blood volume of the mice. From the 5th day on, mice in the treatment group were administrated with WYC-209 once every 2 days at a blood concentration of 1.0 μM and 10 μM; mice in the DMSO group was administered with 0.1% DMSO in a same route of administration as negative control. At this time, there was no significant difference in the body weight between the groups, the mice were fed normally, observing the survival of the mice.
# [7] = tested on: tumor-repopulating cells of Hs-746T gastric cancer; test: Inhibition of proliferation of tumor-repopulating cells, colony tumor volume in 3D fibrin gel; type: cell-based, human; conditions: Hs-746T TRCs
# Method: as §1, §2
# [8] = tested on: tumor-repopulating cells of MCF-7 breast cancer; test: as above; type: cell-based, human; conditions: MCF-7 TRCs
# Method: as §1, §2
# [9] = tested on: tumor-repopulating cells of A549 lung cancer; test: as above; type: cell-based, human; conditions: A549 TRCs
# Method: as §1, §2
# [10] = tested on: tumor-repopulating cells of MDA-MB-435S melanoma; test: as above; type: cell-based, human; conditions: MDA-MB-435S TRCs
# Method: as §1, §2
# [11] = tested on: 3T3 mouse embryonic fibroblast cells; test: In vitro toxicity on normal cells (proliferation, apoptosis); type: cell-based; conditions: 10 μM
# Method: (§3) The 3T3 mouse embryonic fibroblast cells and B16-F1 melanoma cells were used as the model to study in vitro toxicity of WYC-209 and WYC-331 respectively. The effect of compound WYC-209 and WYC-331 on the proliferation of 3T3 mouse embryonic fibroblast cells and B16-F1 melanoma cells were studied at a concentration of 10 μM.
# B16-F1 melanoma cells = test: In vitro effect on B16-F1 melanoma cells (proliferation, apoptosis) in the toxicity study; type: cell-based; conditions: 10 μM
# Method: as §3
# [12] = Mus musculus, B16-F1, 120 h, 10 μM, incubated 5 days, colony tumor size, read-out: Inhibition rate on TRCs of B16-F1 melanoma at a concentration of 10 μM (%)
# [13] = Mus musculus, B16-F1, 10 μM (Table 3), read-out: Inhibition rate on TRCs of B16-F1 melanoma at a concentration of 10 μM/%
# [14] = Mus musculus, B16-F1, dose-response curve
compound,measurement,setting,value
"CCOC(=O)c1ccc(C#Cc2ccc3c(c2)C(C)(C)CCS3)cc1O [WYC-103, ethyl 4-((4,4-dimethylthiochroman-6-yl)ethynyl)-2-hydroxybenzoate]",tumor volume in the treatment group relative to the control group,"[1]; first experiment, after 19 days, tail vein injection every 2 days, blood concentration 10 μM",50%
same,body weight of the mice,"[1]; mouse, in vivo",stable and balanced
same,dissection of peritoneal/abdominal cavity,"[1]; mouse, in vivo",No abnormalities
same,toxic side effects,"[1]; mouse, in vivo",no obvious toxic side effects
same,tumor volume in the treatment group relative to the negative control group,"[1]; repeated experiment, 26th day, tail vein injection every 2 days, blood concentration 10 μM",50%
same,mice died,"[1]; repeated experiment, on the 26th day",50%
same,inhibition at 10 µM,[2]; [12],86.8%
same,inhibition at 10 µM,[2]; [13],86.8%
same,average lung weight relative to the negative control group,[3],⅓
same,toxic side effects,[3]; whole experiment,no obvious toxic side effects
same,efficiency of preventing the occurrence of metastatic melanoma in the lung,[3]; tail vein injection every 2 days,100%
"CCOC(=O)c1cnc(C#Cc2ccc3c(c2)C(C)(C)CC[S+]3[O-])nc1 (stereo not shown) [WYC-209, ethyl 2-((4,4-dimethyl-1-oxothiochroman-6-yl)ethynyl)pyrimidin-5-carboxylate]",volume of tumor colony relative to None group,[4]; 1.0 μM,25-30%
same,volume of colony tumor relative to None group,[4],less than 10%
same,volume of tumor colony relative to None group,[5]; 1.0 μM,25-30%
same,volume of colony tumor relative to None group,[5],less than 10%
same,abnormalities in the liver and stomach,[6]; 1.0 μM treatment group,no abnormalities found in the liver and stomach
same,abnormalities in the liver and stomach,[6]; 10 μM treatment group,no abnormalities found in the liver and stomach
same,mice that suffered pulmonary metastatic melanoma,[6]; 1.0 μM treatment group,50%
same,mice that suffered pulmonary metastatic melanoma,[6]; 10 μM treatment group,12.5%
same,efficiency of preventing metastasis of repopulating cells of melanoma to the lung,[6]; blood concentration 1.0 μM,50%
same,efficiency of preventing metastasis of repopulating cells of melanoma to the lung,[6]; blood concentration 10 μM,87.5% and 87%
same,toxic side effects,[6]; whole experiment,no obvious toxic side effects
same,growth trend of colony tumor,[7],reverse the growth trend of colony tumor
same,volume of tumor colony relative to None group,[7]; 1.0 μM,25-30%
same,volume of colony tumor relative to None group,[7]; 10 μM,less than 10%
same,volume of tumor colony relative to None group,[8]; 1.0 μM,25-30%
same,volume of colony tumor relative to None group,[8]; 10 μM,less than 10%
same,volume of tumor colony relative to None group,[9]; 1.0 μM,25-30%
same,volume of colony tumor relative to None group,[9]; 10 μM,less than 10%
same,volume of tumor colony relative to None group,[10]; 1.0 μM,25-30%
same,volume of colony tumor relative to None group,[10]; 10 μM,less than 10%
same,effect on proliferation of 3T3 mouse embryonic fibroblast cells,[11],did not affect the proliferation; also recorded: no effect on the growth of 3T3 cell clones
same,induction of apoptosis of 3T3 mouse embryonic fibroblast cells,[11],did not induce apoptosis; also recorded: could not induce apoptosis
same,inhibition at 10 µM,[2]; [12],98.8%
same,IC50,[2]; [14],0.25 µM
same,inhibition at 10 µM,[2]; [13],98.8%
same,IC50,[2]; dose-response curve,0.19 µM
same,effect on proliferation of B16-F1 melanoma cells,B16-F1 melanoma cells,significantly block the growth
same,induction of apoptosis of B16-F1 melanoma cells,B16-F1 melanoma cells,significant cell apoptosis
"CCOC(=O)c1cnc(C#Cc2ccc3c(c2)C(C)(C)CCC3(C)C)nc1 [WYC-331, ethyl 2-((5,5,8,8-tetramethyl-5,6,7,8-tetrahydronaphth-2-yl)ethynyl)pyrimidin-5-carboxylate]",volume of colony tumor relative to None group,[4],10-15%
same,growth trend of colony tumor,[5],reverse the growth trend of colony tumor
same,volume of colony tumor relative to None group,[5],10-15%
same,effect on proliferation of 3T3 mouse embryonic fibroblast cells,[11],no effect on the growth of 3T3 cell clones
same,induction of apoptosis of 3T3 mouse embryonic fibroblast cells,[11],did not exhibit significant apoptosis-inducing effect; also recorded: could not induce apoptosis
same,inhibition at 10 µM,[2]; [12],96%
same,IC50,[2]; [14],0.017 µM
same,inhibition at 10 µM,[2]; [13],96%
same,effect on proliferation of B16-F1 melanoma cells,B16-F1 melanoma cells,strongly inhibited the proliferation
same,induction of apoptosis of B16-F1 melanoma cells,B16-F1 melanoma cells,did not exhibit significant apoptosis-inducing effect
